Measured values from PubChem BioAssay AID1963959 (Molecular Pharmacology Branch, DTP, NCI, 2024).
Values joined by “and” are separate entries in the source; they are usually repeats but may differ in a detail not shown here. Equal entries are not always repeated.

Tested on: T-47D spheroids with HUVEC/MSC, viability
Assay: Anticancer human tumor T-47D cell line growth inhibition [PI3K];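 also: spheroids exposed to agents for seven days before reading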;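 as to viability, T/C: percent of DMSO vehicle control luminescence so 100% = untreated growth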
Conditions: for viability, T/C: stronger effect = lower value; active = viability on the fitted dose curve at most 10% of control; inactive = the rest
Summary of the method: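 Multi-cell spheroids combine tumor cells with HUVEC and human MSCs, treated with targeted agents alone or with inavolisib, alpelisib, duvelisib or copanlisib. Concentrations fall in half-log steps from at or near clinical Cmax, or from 10 microM where Cmax is unknown; viability read-out.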

[1] = curve of first compound, second compound 0.0316 µM
[2] = curve of first compound, second compound 0.1 µM
[3] = curve of first compound, second compound 0.316 µM
[4] = curve of first compound, second compound 1 µM
[5] = second compound 0.0316 µM, first compound 0.000316 µM
[6] = second compound 0.0316 µM, first compound 0.001 µM
[7] = second compound 0.0316 µM, first compound 0.00316 µM
[8] = second compound 0.0316 µM, first compound 0.01 µM
[9] = second compound 0.0316 µM, first compound 0.0316 µM
[10] = second compound 0.0316 µM, first compound 0.1 µM
[11] = second compound 0.1 µM, first compound 0.000316 µM
[12] = second compound 0.1 µM, first compound 0.001 µM
[13] = second compound 0.1 µM, first compound 0.00316 µM
[14] = second compound 0.1 µM, first compound 0.01 µM
[15] = second compound 0.1 µM, first compound 0.0316 µM
[16] = second compound 0.1 µM, first compound 0.1 µM
[17] = second compound 0.316 µM, first compound 0.000316 µM
[18] = second compound 0.316 µM, first compound 0.001 µM
[19] = second compound 0.316 µM, first compound 0.00316 µM
[20] = second compound 0.316 µM, first compound 0.01 µM
[21] = second compound 0.316 µM, first compound 0.0316 µM
[22] = second compound 0.316 µM, first compound 0.1 µM
[23] = second compound 1 µM, first compound 0.000316 µM
[24] = second compound 1 µM, first compound 0.001 µM
[25] = second compound 1 µM, first compound 0.00316 µM
[26] = second compound 1 µM, first compound 0.01 µM
[27] = second compound 1 µM, first compound 0.0316 µM
[28] = second compound 1 µM, first compound 0.1 µM
[29] = curve of first compound, second compound 0.00316 µM
[30] = curve of first compound, second compound 0.01 µM
[31] = second compound 0.00316 µM, first compound 0.0316 µM
[32] = second compound 0.00316 µM, first compound 0.1 µM
[33] = second compound 0.00316 µM, first compound 0.316 µM
[34] = second compound 0.00316 µM, first compound 1 µM
[35] = second compound 0.00316 µM, first compound 3.16 µM
[36] = second compound 0.00316 µM, first compound 10 µM
[37] = second compound 0.01 µM, first compound 0.0316 µM
[38] = second compound 0.01 µM, first compound 0.1 µM
[39] = second compound 0.01 µM, first compound 0.316 µM
[40] = second compound 0.01 µM, first compound 1 µM
[41] = second compound 0.01 µM, first compound 3.16 µM
[42] = second compound 0.01 µM, first compound 10 µM
[43] = second compound 0.0316 µM, first compound 0.316 µM
[44] = second compound 0.0316 µM, first compound 1 µM
[45] = second compound 0.0316 µM, first compound 3.16 µM
[46] = second compound 0.0316 µM, first compound 10 µM
[47] = second compound 0.1 µM, first compound 0.316 µM
[48] = second compound 0.1 µM, first compound 1 µM
[49] = second compound 0.1 µM, first compound 3.16 µM
[50] = second compound 0.1 µM, first compound 10 µM
[51] = second compound 0.316 µM, first compound 0.316 µM
[52] = second compound 0.316 µM, first compound 1 µM
[53] = second compound 0.316 µM, first compound 3.16 µM
[54] = second compound 0.316 µM, first compound 10 µM
[55] = second compound 1 µM, first compound 0.316 µM
[56] = second compound 1 µM, first compound 1 µM
[57] = second compound 1 µM, first compound 3.16 µM
[58] = second compound 1 µM, first compound 10 µM

Cn1ncnc1[C@H]1c2n[nH]c(=O)c3cc(F)cc(c23)N[C@@H]1c1ccc(F)cc1 + Cc1nc(NC(=O)N2CCCC2C(N)=O)sc1-c1ccnc(C(C)(C)C(F)(F)F)c1
> 100 nM: IC50 [1] | IC50 [2] | IC50 [3] | IC50 [4] | IC50 (curve of first compound, second compound 3.16 µM)
< 0.316 nM: IC50 (curve of first compound, second compound 10 µM)
inactive: viability, T/C [5] 105% | viability, T/C [6] 103% | viability, T/C [7] 99% | viability, T/C [8] 99.9% | viability, T/C [9] 86.8% | viability, T/C [10] 98.8% | viability, T/C [11] 106% | viability, T/C [12] 96.3% | viability, T/C [13] 95.5% | viability, T/C [14] 106% | viability, T/C [15] 99.5% | viability, T/C [16] 86.7% | viability, T/C [17] 105% | viability, T/C [18] 97.5% | viability, T/C [19] 105% | viability, T/C [20] 87% | viability, T/C [21] 94.5% | viability, T/C [22] 86.5% | viability, T/C [23] 101% | viability, T/C [24] 89.3% | viability, T/C [25] 85.1% | viability, T/C [26] 89.4% | viability, T/C [27] 87.7% | viability, T/C [28] 90.5% | viability, T/C (second compound 3.16 µM, first compound 0.000316 µM) 65.1% | viability, T/C (second compound 3.16 µM, first compound 0.001 µM) 70.8% | viability, T/C (second compound 3.16 µM, first compound 0.00316 µM) 63.4% | viability, T/C (second compound 3.16 µM, first compound 0.01 µM) 63.6% | viability, T/C (second compound 3.16 µM, first compound 0.0316 µM) 71.5% | viability, T/C (second compound 3.16 µM, first compound 0.1 µM) 69.2% | viability, T/C (second compound 10 µM, first compound 0.000316 µM) 39% | viability, T/C (second compound 10 µM, first compound 0.001 µM) 34.8% | viability, T/C (second compound 10 µM, first compound 0.00316 µM) 36.8% | viability, T/C (second compound 10 µM, first compound 0.01 µM) 34.1% | viability, T/C (second compound 10 µM, first compound 0.0316 µM) 32.9% | viability, T/C (second compound 10 µM, first compound 0.1 µM) 38.9%

CC(C)NCC(C(=O)N1CCN(c2ncnc3c2C(C)CC3O)CC1)c1ccc(Cl)cc1 (stereo unspecified)
> 10000 nM: IC50 (curve of compound)
inactive: viability, T/C (compound 0.0316 µM) 99.4% [middle of 4 runs] | viability, T/C (compound 0.1 µM) 83.5% [middle of 4 runs] | viability, T/C (compound 0.316 µM) 84.9% [middle of 4 runs] | viability, T/C (compound 1 µM) 79.4% [middle of 4 runs] | viability, T/C (compound 3.16 µM) 64.1% [middle of 4 runs] | viability, T/C (compound 10 µM) 52.3% [middle of 4 runs]

CC(C)NCC(C(=O)N1CCN(c2ncnc3c2C(C)CC3O)CC1)c1ccc(Cl)cc1 (stereo unspecified) + COc1c(OCCCN2CCOCC2)ccc2c3n(c(=NC(=O)c4cnc(N)nc4)nc12)CCN3
inactive: viability, T/C [31] 92.8% | viability, T/C [32] 71% | viability, T/C [33] 74.3% | viability, T/C [34] 64.8% | viability, T/C [35] 50.7% | viability, T/C [36] 45.9% | viability, T/C [37] 90.7% | viability, T/C [38] 74.2% | viability, T/C [39] 64% | viability, T/C [40] 53.6% | viability, T/C [41] 45.3% | viability, T/C [42] 38.8% | viability, T/C [9] 69.8% | viability, T/C [10] 70.9% | viability, T/C [43] 50.1% | viability, T/C [44] 45.2% | viability, T/C [45] 40.6% | viability, T/C [46] 38.3% | viability, T/C [15] 46.5% | viability, T/C [16] 40.7% | viability, T/C [47] 34.3% | viability, T/C [48] 30.4% | viability, T/C [49] 30.2% | viability, T/C [50] 26.1% | viability, T/C [21] 17.6% | viability, T/C [22] 18.4% | viability, T/C [51] 16% | viability, T/C [52] 17.4% | viability, T/C [53] 15.1% | viability, T/C [54] 15.6%
1600 nM: IC50 [30]
active: viability, T/C [27] 5.88% | viability, T/C [28] 5.08% | viability, T/C [55] 4.99% | viability, T/C [56] 5.31% | viability, T/C [57] 4.66% | viability, T/C [58] 6.36%
5280 nM: IC50 [29]
324 nM: IC50 [1]
< 31.6 nM: IC50 [2] | IC50 [3] | IC50 [4]

Cn1nccc1Nc1nccc(-c2ccn(C(CO)c3ccc(Cl)c(F)c3)c(=O)c2)n1 (stereo unspecified)
inactive: viability, T/C (compound 0.0316 µM) 103% [middle of 4 runs] | viability, T/C (compound 0.1 µM) 93.2% [middle of 4 runs] | viability, T/C (compound 0.316 µM) 105% [middle of 4 runs] | viability, T/C (compound 3.16 µM) 99.5% [middle of 4 runs] | viability, T/C (compound 10 µM) 82.5% and 92.7% and 101% (2×)
> 10000 nM: IC50 (curve of compound)

CC(=O)c1c(C)c2cnc(Nc3ccc(N4CCNCC4)cn3)nc2n(C2CCCC2)c1=O + CC(Nc1ccc2c(c1)OCCn1cc(N3C(=O)OCC3C(F)F)nc1-2)C(N)=O
> 100 nM: IC50 [29] | IC50 [30] | IC50 [1] | IC50 [2] | IC50 [3]
< 0.316 nM: IC50 [4]
inactive: viability, T/C (second compound 0.00316 µM, first compound 0.000316 µM) 92.1% | viability, T/C (second compound 0.00316 µM, first compound 0.001 µM) 90.5% | viability, T/C (second compound 0.00316 µM, first compound 0.00316 µM) 82.9% | viability, T/C (second compound 0.00316 µM, first compound 0.01 µM) 95.3% | viability, T/C [31] 64.4% | viability, T/C [32] 86% | viability, T/C (second compound 0.01 µM, first compound 0.000316 µM) 83.8% | viability, T/C (second compound 0.01 µM, first compound 0.001 µM) 121% | viability, T/C (second compound 0.01 µM, first compound 0.00316 µM) 71.9% | viability, T/C (second compound 0.01 µM, first compound 0.01 µM) 75.3% | viability, T/C [37] 78.6% | viability, T/C [38] 69.8% | viability, T/C [5] 70.1% | viability, T/C [6] 85.8% | viability, T/C [7] 76.1% | viability, T/C [8] 83.6% | viability, T/C [9] 69.8% | viability, T/C [10] 67.1% | viability, T/C [11] 84.7% | viability, T/C [12] 89.8% | viability, T/C [13] 76% | viability, T/C [14] 65.7% | viability, T/C [15] 77% | viability, T/C [16] 54.5% | viability, T/C [17] 59.4% | viability, T/C [18] 65.9% | viability, T/C [19] 48.9% | viability, T/C [20] 56.7% | viability, T/C [21] 43.4% | viability, T/C [22] 60.1% | viability, T/C [23] 39.9% | viability, T/C [24] 55.6% | viability, T/C [25] 49.5% | viability, T/C [26] 41% | viability, T/C [27] 38.9% | viability, T/C [28] 32.6%

C#Cc1c(F)ccc2cc(O)cc(-c3ncc4c(N5CC6CCC(C5)N6)nc(OCC56CCCN5CC(F)C6)nc4c3F)c12 (stereo unspecified) + CC(Nc1ccc2c(c1)OCCn1cc(N3C(=O)OCC3C(F)F)nc1-2)C(N)=O
inactive: viability, T/C [31] 96.3% | viability, T/C [32] 85.3% | viability, T/C [33] 85.6% | viability, T/C [34] 78.3% | viability, T/C [35] 90.9% | viability, T/C [36] 84.1% | viability, T/C [37] 107% | viability, T/C [38] 82.3% | viability, T/C [39] 102% | viability, T/C [40] 100% | viability, T/C [41] 95.2% | viability, T/C [42] 92.9% | viability, T/C [9] 83.3% | viability, T/C [10] 77.8% | viability, T/C [43] 97.8% | viability, T/C [44] 79% | viability, T/C [45] 94.6% | viability, T/C [46] 89.1% | viability, T/C [15] 99.8% | viability, T/C [16] 83% | viability, T/C [47] 79% | viability, T/C [48] 88.6% | viability, T/C [49] 91.1% | viability, T/C [50] 81.4% | viability, T/C [21] 62.7% | viability, T/C [22] 70.7% | viability, T/C [51] 76.8% | viability, T/C [52] 59.9% | viability, T/C [53] 70.8% | viability, T/C [54] 61.3% | viability, T/C [27] 48.8% | viability, T/C [28] 55.3% | viability, T/C [55] 61.2% | viability, T/C [56] 43.7% | viability, T/C [57] 46.1% | viability, T/C [58] 62.5%
> 10000 nM: IC50 [29] | IC50 [30] | IC50 [1] | IC50 [2] | IC50 [3] | IC50 [4]
